Source: ChEMBL document CHEMBL1201862, “PubChem BioAssay data set” (2004)
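Compound exposure: 48 hours, 5 concentrations, 96-well plates. GI50 = concentration required for 50% inhibition of growth.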 Calls of active or inactive are those of the source. Rule as the data show it: active = GI50 up to about 1.1 µM and inactive = higher.

Experiments:
Test in all cases: NCI-60 cell line screen, 48 h
A549 = system: A549
Hs-578T = system: Hs-578T
A498 = system: A498
K562 = system: K562
HOP-62 = system: HOP-62
OVCAR-8 = system: OVCAR-8
UACC-257 = system: UACC-257
OVCAR-4 = system: OVCAR-4
COLO 205 = system: COLO 205
NCI-H226 = system: NCI-H226
SF-295 = system: SF-295
RPMI-8226 = system: RPMI-8226
SK-MEL-28 = system: SK-MEL-28
HCT-116 = system: HCT-116
RXF 393 = system: RXF 393
HCC 2998 = system: HCC 2998
HL-60 = system: HL-60
T47D = system: T47D

| Compound | GI50 (A549) | GI50 (Hs-578T) | GI50 (A498) | GI50 (K562) | GI50 (HOP-62) | GI50 (OVCAR-8) | GI50 (UACC-257) | GI50 (OVCAR-4) | GI50 (COLO 205) | GI50 (NCI-H226) | GI50 (SF-295) | GI50 (RPMI-8226) | GI50 (SK-MEL-28) | GI50 (HCT-116) | GI50 (RXF 393) | GI50 (HCC 2998) | GI50 (HL-60) | GI50 (T47D) |
| --- | --- | --- | --- | --- | --- | --- | --- | --- | --- | --- | --- | --- | --- | --- | --- | --- | --- | --- |
| O=C1/C(=C/c2cccs2)NC(=S)N1CN1CCCC(CO)C1 (stereo not given) | > 100 µM (inactive) | > 100 µM (inactive) | 32.2 µM (inactive) | > 100 µM (inactive) | > 100 µM (inactive) | > 100 µM (inactive) | > 100 µM (inactive) | > 100 µM (inactive) | > 100 µM (inactive) | > 100 µM (inactive) | 91.4 µM (inactive) | 99.1 µM (inactive) | > 100 µM (inactive) | > 100 µM (inactive) | – | – | – | – |
| CCN(CCCOc1ccccc1)CCN(CC)CCCOc1ccccc1 | 12.8 µM (inactive) | 13.5 µM (inactive) | – | 3.1 µM (inactive) | 20.4 µM (inactive) | 15.7 µM (inactive) | 16.2 µM (inactive) | 18.6 µM (inactive) | 5.86 µM (inactive) | 21.8 µM (inactive) | 15.6 µM (inactive) | 0.249 µM (active) | 15.1 µM (inactive) | 11.7 µM (inactive) | 13.4 µM (inactive) | 8.69 µM (inactive) | 7.46 µM (inactive) | – |
| COc1c(C2(c3ccc(F)cc3)SCCCS2)c(=O)c1=O | > 100 µM (inactive) | > 100 µM (inactive) | – | > 100 µM (inactive) | > 100 µM (inactive) | > 100 µM (inactive) | > 100 µM (inactive) | > 100 µM (inactive) | > 100 µM (inactive) | > 100 µM (inactive) | > 100 µM (inactive) | > 100 µM (inactive) | > 100 µM (inactive) | > 100 µM (inactive) | > 100 µM (inactive) | > 100 µM (inactive) | 31.6 µM (inactive) | – |
| Oc1ccc2ccccc2c1/N=N/c1cc(Cl)ccc1Cl | 17 µM (inactive) | 10.1 µM (inactive) | – | 20.7 µM (inactive) | 10 µM (inactive) | 10.4 µM (inactive) | > 50 µM (inactive) | 13.9 µM (inactive) | 23.3 µM (inactive) | 49 µM (inactive) | 9.73 µM (inactive) | > 50 µM (inactive) | > 50 µM (inactive) | 15.6 µM (inactive) | 27 µM (inactive) | – | 22.6 µM (inactive) | – |
| CC1=C(CCC(C)CO)O[C@H]2C[C@H]3[C@@H]4CC[C@H]5C[C@@H](O)CC[C@]5(C)[C@H]4CC(=O)[C@]3(C)[C@@H]12 (stereo not given in full) | 13.8 µM (inactive) | 17.1 µM (inactive) | 20.3 µM (inactive) | 10.4 µM (inactive) | 9.27 µM (inactive) | 11.7 µM (inactive) | 14.8 µM (inactive) | 25.2 µM (inactive) | 8.97 µM (inactive) | 27.2 µM (inactive) | 1.27 µM (inactive) | 2.4 µM (inactive) | 22.1 µM (inactive) | 17.5 µM (inactive) | 29.1 µM (inactive) | – | 2.94 µM (inactive) | 7.03 µM (inactive) |
| CCCCCCCN(CCCCCCC)CC(O)c1cc2ccccc2c2cc(Br)ccc12 (stereo not given) | – | – | > 100 µM (inactive) | 30.7 µM (inactive) | 24.7 µM (inactive) | 30.3 µM (inactive) | 40.4 µM (inactive) | > 100 µM (inactive) | 24.8 µM (inactive) | – | > 10 µM (inactive) | 24.9 µM (inactive) | 36.6 µM (inactive) | 21.1 µM (inactive) | – | 15.2 µM (inactive) | 39.2 µM (inactive) | 43 µM (inactive) |
| NC12c3c4cccc3Oc3cccc(c31)Oc1cccc(c12)O4 | > 50 µM (inactive) | 31.3 µM (inactive) | > 50 µM (inactive) | 31 µM (inactive) | > 50 µM (inactive) | > 50 µM (inactive) | > 50 µM (inactive) | > 50 µM (inactive) | > 50 µM (inactive) | > 50 µM (inactive) | > 50 µM (inactive) | > 50 µM (inactive) | > 50 µM (inactive) | > 50 µM (inactive) | > 50 µM (inactive) | – | 18.2 µM (inactive) | > 50 µM (inactive) |
| COc1ccc(Nc2nc3ccc(C(F)(F)F)cc3nc2C(=O)O)cc1OC | – | 38.6 µM (inactive) | 27.9 µM (inactive) | 29 µM (inactive) | 25.2 µM (inactive) | 23.2 µM (inactive) | 30.6 µM (inactive) | 40.6 µM (inactive) | 43 µM (inactive) | 36.7 µM (inactive) | 24 µM (inactive) | – | 41.6 µM (inactive) | 25.9 µM (inactive) | 29.6 µM (inactive) | 18.7 µM (inactive) | 29.9 µM (inactive) | – |
| O=C1/C(=C/c2n[nH]cc2-c2ccc(Cl)cc2)C(=O)N(c2ccccc2)C1c1ccccc1 (stereo not given) | 25 µM (inactive) | 9.4 µM (inactive) | 20.6 µM (inactive) | 8.41 µM (inactive) | 17.4 µM (inactive) | – | 19.7 µM (inactive) | 25.6 µM (inactive) | 14.2 µM (inactive) | 24.2 µM (inactive) | 18.4 µM (inactive) | 13.7 µM (inactive) | 17.7 µM (inactive) | 12.5 µM (inactive) | 14.3 µM (inactive) | – | 12.9 µM (inactive) | 1.69 µM (inactive) |
| Oc1c(CN2CCOCC2)ccc(CN2CCOCC2)c1O | 39.4 µM (inactive) | > 100 µM (inactive) | > 100 µM (inactive) | 34.3 µM (inactive) | 42.3 µM (inactive) | 47.2 µM (inactive) | 27.2 µM (inactive) | > 100 µM (inactive) | 45.9 µM (inactive) | 28.4 µM (inactive) | 26 µM (inactive) | 50.1 µM (inactive) | 61.5 µM (inactive) | 38 µM (inactive) | 29.2 µM (inactive) | – | 3.8 µM (inactive) | 39.7 µM (inactive) |
| O=C(O)c1cscc1Cc1cccs1 | > 100 µM (inactive) | > 100 µM (inactive) | > 100 µM (inactive) | > 100 µM (inactive) | > 100 µM (inactive) | > 100 µM (inactive) | > 100 µM (inactive) | > 100 µM (inactive) | > 100 µM (inactive) | 23.5 µM (inactive) | > 100 µM (inactive) | > 100 µM (inactive) | > 100 µM (inactive) | > 100 µM (inactive) | > 100 µM (inactive) | – | > 100 µM (inactive) | > 100 µM (inactive) |
| C[NH+]1[C@@H](Cc2ccccc2)C(=O)O[B-]1(F)c1ccccc1 (stereo not given in full) | > 100 µM (inactive) | – | > 100 µM (inactive) | > 100 µM (inactive) | > 100 µM (inactive) | > 100 µM (inactive) | > 100 µM (inactive) | > 100 µM (inactive) | > 100 µM (inactive) | > 100 µM (inactive) | > 100 µM (inactive) | > 100 µM (inactive) | > 100 µM (inactive) | > 100 µM (inactive) | – | > 100 µM (inactive) | > 100 µM (inactive) | > 100 µM (inactive) |
